# Where a SMILES comes first, the peptide text is derived from it.
# Tests used:
# [1] = Antagonist activity at UT2 receptor in Sprague-Dawley rat thoracic aorta ring assessed as pEC50 for hU2-induced aortic contractions at 10^-5M relative to KCl
# [2] = Antagonist activity at UT2 receptor in Sprague-Dawley rat thoracic aorta ring assessed as pEC50 for URP -induced aortic contractions at 10^-5M relative to KCl
EC50 [1],EC50 [2],Compound
5 nM,7.9 nM,CC(C)[C@H](NC(=O)[C@@H]1CSSC[C@H](NC(=O)[C@@H](N)CC(=O)O)C(=O)N[C@@H](Cc2ccccc2)C(=O)NN(Cc2cccc3ccccc23)S(=O)(=O)N[C@@H](CCCCN)C(=O)N[C@@H](Cc2ccc(O)cc2)C(=O)N1)C(=O)O
15 nM,9.5 nM,CC(C)[C@H](NC(=O)[C@@H]1CSSC[C@H](NC(=O)[C@@H](N)CC(=O)O)C(=O)N[C@@H](Cc2ccccc2)C(=O)NN(Cc2ccc3ccccc3c2)S(=O)(=O)N[C@@H](CCCCN)C(=O)N[C@@H](Cc2ccc(O)cc2)C(=O)N1)C(=O)O
4.8 nM,3.5 nM,"CC(C)[C@H](NC(=O)[C@@H]1CSSC[C@H](NC(=O)[C@@H](N)CC(=O)O)C(=O)N[C@@H](Cc2ccccc2)C(=O)NN(Cc2ccccc2)S(=O)(=O)N[C@@H](CCCCN)C(=O)N[C@@H](Cc2ccc(O)cc2)C(=O)N1)C(=O)O (HELM PEPTIDE1{D.C.F.[NCCCC[C@H](NS(=O)(=O)N(Cc1ccccc1)N[*:1])C(=O)[*:2]].Y.C.V}$PEPTIDE1,PEPTIDE1,2:R3-6:R3$$$V2.0)"

Compound,EC50 [1],EC50 [2]
"CC(C)[C@H](NC(=O)[C@@H]1CSSC[C@H](NC(=O)[C@@H](N)CC(=O)O)C(=O)N[C@@H](Cc2ccccc2)C(=O)N[C@@H](Cc2c[nH]c3ccccc23)C(=O)NN(CCCCN(C)C)S(=O)(=O)N[C@@H](Cc2ccc(O)cc2)C(=O)N1)C(=O)O (HELM PEPTIDE1{D.C.F.W.[CN(C)CCCCN(N[*:1])S(=O)(=O)N[C@@H](Cc1ccc(O)cc1)C(=O)[*:2]].C.V}$PEPTIDE1,PEPTIDE1,2:R3-6:R3$$$V2.0)",1.6 nM,3.7 nM
